The target of one experiment is CDK7/CycH (Homo sapiens, UniProt P50613). Description: CDK7/CycH inhibition (Tables A1, A2). Format: biochemical.
The target in a further experiment is CDK9/CycT (Homo sapiens, UniProt P50750). Description: CDK9/CycT inhibition (Tables A1, A2). Format: biochemical.
The target in the next experiment is CDK2/CycA (Homo sapiens, UniProt P24941). Description: CDK2/CycA inhibition (Tables A1, A2). Format: biochemical.
Another experiment has as its system Jurkat cells. Description: Jurkat proliferation assay (CellTiter-Glo). The note with it: Homo sapiens, Jurkat; read-out: Jurkat IC50. Format: cell-based. The procedure:
Jurkat cells were seeded at a density of 25,000 cells/well in 96-well plates. Cells were then treated with the indicated compounds in a 10-pt dose escalation format from 1 nM to 10 μM or DMSO control for 72 hours. After 72 hours, the cells were assayed using CellTiter-Glo Luminescent Cell Viability Assay (Promega) to determine cell viability by measuring the amount of ATP present in each sample cell population, which is an indicator of cell metabolic activity. […] All data points were performed in biological triplicate. Error bars are +/−SD.
Jurkat cells were seeded at a density of 25,000 cells/well in 96-well plates. Cells were then treated with the indicated compounds in a 10-pt dose escalation format from 1 nM to 10 μM or DMSO control for 72 hrs. After 72 hrs, cells were assayed using CellTiter-Glo Luminescent Cell Viability Assay (Promega) to determine cell viability by measuring the amount of ATP present in each sample cell population, which is an indicator of cell metabolic activity. […] All data points were performed in biological triplicate. Error bars are +/−SD.
Background: In ATP-based viability assays light output follows the ATP content of the culture.

The record followed here is patent US12098154B2, “Inhibitors of cyclin-dependent kinases” (Dana-Farber Cancer Institute, Inc., priority 2015, dated 2024).

CDK7/CycH, sequence (P50613 whole entry): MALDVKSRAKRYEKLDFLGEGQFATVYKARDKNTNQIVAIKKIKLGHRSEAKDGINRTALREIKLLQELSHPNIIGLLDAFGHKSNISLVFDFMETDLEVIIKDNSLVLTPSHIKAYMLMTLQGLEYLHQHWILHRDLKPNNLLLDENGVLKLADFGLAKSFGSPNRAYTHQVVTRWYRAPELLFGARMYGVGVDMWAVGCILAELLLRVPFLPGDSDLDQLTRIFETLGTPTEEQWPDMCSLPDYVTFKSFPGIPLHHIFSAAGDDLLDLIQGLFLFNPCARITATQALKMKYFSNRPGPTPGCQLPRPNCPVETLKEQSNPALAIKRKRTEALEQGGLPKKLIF
CDK7/CycH, sequence (P51946 whole entry partner): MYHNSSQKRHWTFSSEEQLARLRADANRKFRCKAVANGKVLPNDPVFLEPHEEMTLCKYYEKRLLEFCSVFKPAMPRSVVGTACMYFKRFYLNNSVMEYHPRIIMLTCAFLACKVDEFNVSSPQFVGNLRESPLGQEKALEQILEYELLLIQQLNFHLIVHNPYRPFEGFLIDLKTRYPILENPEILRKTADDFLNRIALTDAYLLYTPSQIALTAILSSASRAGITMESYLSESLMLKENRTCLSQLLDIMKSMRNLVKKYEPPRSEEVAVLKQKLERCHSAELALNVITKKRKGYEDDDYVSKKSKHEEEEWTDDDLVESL
CDK9/CycT, sequence (P50750 whole entry): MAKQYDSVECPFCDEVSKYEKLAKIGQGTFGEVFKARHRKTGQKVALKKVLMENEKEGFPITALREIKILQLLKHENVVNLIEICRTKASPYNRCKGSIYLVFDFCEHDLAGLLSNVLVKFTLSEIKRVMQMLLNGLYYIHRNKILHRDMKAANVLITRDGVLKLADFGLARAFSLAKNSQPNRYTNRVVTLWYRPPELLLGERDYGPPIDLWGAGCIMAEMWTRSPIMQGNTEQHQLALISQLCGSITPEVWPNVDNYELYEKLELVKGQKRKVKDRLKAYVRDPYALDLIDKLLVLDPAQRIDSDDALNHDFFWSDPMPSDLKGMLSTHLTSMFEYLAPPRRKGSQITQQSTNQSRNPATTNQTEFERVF
CDK9/CycT, sequence (O60563 whole entry partner): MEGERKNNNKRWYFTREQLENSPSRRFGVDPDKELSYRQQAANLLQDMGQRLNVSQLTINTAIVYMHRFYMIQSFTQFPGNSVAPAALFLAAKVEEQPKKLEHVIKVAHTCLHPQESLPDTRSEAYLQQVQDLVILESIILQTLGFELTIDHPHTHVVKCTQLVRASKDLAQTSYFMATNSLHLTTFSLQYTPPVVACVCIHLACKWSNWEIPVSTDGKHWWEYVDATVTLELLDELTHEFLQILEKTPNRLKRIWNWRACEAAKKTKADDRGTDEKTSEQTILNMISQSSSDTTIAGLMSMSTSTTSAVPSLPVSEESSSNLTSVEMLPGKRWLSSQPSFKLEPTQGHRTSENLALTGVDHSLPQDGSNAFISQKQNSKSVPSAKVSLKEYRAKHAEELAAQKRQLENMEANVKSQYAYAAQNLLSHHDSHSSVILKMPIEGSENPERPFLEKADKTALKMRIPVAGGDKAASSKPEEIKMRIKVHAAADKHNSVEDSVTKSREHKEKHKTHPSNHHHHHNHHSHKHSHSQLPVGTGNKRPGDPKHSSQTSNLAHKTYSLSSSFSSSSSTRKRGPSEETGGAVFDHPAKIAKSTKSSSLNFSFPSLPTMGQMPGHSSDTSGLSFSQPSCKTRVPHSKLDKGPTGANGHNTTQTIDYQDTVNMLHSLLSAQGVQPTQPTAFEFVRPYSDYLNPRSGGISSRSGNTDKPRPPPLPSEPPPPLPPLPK

Take `C=CC(=O)Nc1cccc(Nc2nc(N[C@H]3CC[C@@H](N(C)C)CC3)nc3c2ncn3C(C)C)c1` [E-1(SB1-E-14), N-(3-(2-((1s,4s)-4-(Dimethylamino)cyclohexylamino)-9-isopropyl-9H-purin-6-ylamino)phenyl)acrylamide]: the IC50 (usually the concentration that inhibits the measured activity by half) worked out at 254 nM at CDK7/CycH, 1360 nM on CDK9/CycT and 735 nM on CDK2/CycA.

With `C=CC(=O)Nc1cccc(Nc2cc(N3CCCC[C@@H]3CCO)nc3c(CC)cnn23)c1` [MFH-1-143-1, (R)—N-(3-(3-ethyl-5-(2-(2-hydroxyethyl)piperidin-1-yl)pyrazolo[1,5-a]pyrimidin-7-ylamino)phenyl)acrylamide], the IC50 was 2510 nM against CDK7/CycH, 859 nM against CDK9/CycT and greater than 10000 nM against CDK2/CycA.

For the molecule `C=CC(=O)NC1CCCC(Nc2nc(N[C@H]3CC[C@H](N(C)C)CC3)nc3c(CC)cnn23)C1` (stereo partly shown) [MFH-2-78-1, N-(3-((2-(((1r,4r)-4-(dimethylamino)cyclohexyl)amino)-8-ethylpyrazolo[1,5-a][1,3,5]triazin-4-yl)amino)cyclohexyl)acrylamide], the IC50 was 842 nM at CDK7/CycH, 68.7 nM against CDK9/CycT and greater than 1000 nM against CDK2/CycA.

With `C=CC(=O)NCc1cccc(Nc2nc(N[C@H]3CC[C@H](N(C)C)CC3)nc3c2ncn3C(C)C)c1` [SB1-E-16, N-(3-(2-((1r,4r)-4-(Dimethylamino)cyclohexylamino)-9-isopropyl-9H-purin-6-ylamino)benzyl)acrylamide], the IC50 on CDK7/CycH is 255 nM; against CDK9/CycT, 116 nM; against CDK2/CycA, 30.3 nM.

On to `C=CC(=O)N[C@H]1CC[C@H](Nc2cc(N3CCCC[C@H]3CCO)nc3c(CC)cnn23)CC1` [MFH-1-175-1, N-((1S,4r)-4-((3-ethyl-5-((S)-2-(2-hydroxyethyl)piperidin-1-yl)pyrazolo[1,5-a]pyrimidin-7-yl)amino)cyclohexyl)acrylamide], for which the IC50 against CDK7/CycH stood at 442 nM; at CDK9/CycT, 48.2 nM; at CDK2/CycA it was 1080 nM.

Take `C=CC(=O)Nc1ccc(C(=O)Nc2cccc(Nc3cc(N[C@H]4CC[C@H](N(C)C)CC4)nc4c(C(C)C)cnn34)c2)cc1` [SB1-E-25, 4-Acrylamido-N-(3-(5-((1r,4r)-4-(dimethylamino)cyclohexylamino)-3-isopropylpyrazolo[1,5-a]pyrimidin-7-ylamino)phenyl)benzamide]: the IC50 against CDK7/CycH turned out to be 410 nM; against CDK9/CycT, 387 nM; at CDK2/CycA, 33400 nM.

As for `C=CC(=O)Nc1ccc(C(=O)Nc2cccc(Nc3cc(N[C@H]4CC[C@H](N(C)C)CC4)nc4c(CC)cnn34)c2)cc1` [SB1-E-22, 4-Acrylamido-N-(3-(5-((1r,4r)-4-(dimethylamino)cyclohexylamino)-3-ethylpyrazolo[1,5-a]pyrimidin-7-ylamino)phenyl)benzamide], the IC50 at CDK7/CycH is 246 nM; against CDK9/CycT, 88.9 nM; on CDK2/CycA, 28300 nM.

On to `C=CC(=O)NC1CCCC(Nc2nc(N[C@H]3CC[C@H](N(C)C)CC3)nc3c2ncn3C(C)C)C1` (stereo partly shown) [SB1-E-15, N-(3-(2-((1r,4r)-4-(Dimethylamino)cyclohexylamino)-9-isopropyl-9H-purin-6-ylamino)cyclohexyl)acrylamide], for which the IC50 against CDK7/CycH was determined as 763 nM; on CDK9/CycT it was 58.9 nM; at CDK2/CycA, 1480 nM.

Consider `C=CC(=O)Nc1ccc(C(=O)N2CCCC(Nc3cc(N4CCCC(N)C4)nc4c(CC)cnn34)C2)cc1` (stereo not shown) [THZ-4-141-1], for which the figures for the IC50 against CDK7/CycH, against CDK9/CycT and at CDK2/CycA were 3600 nM, 3570 nM and greater than 1000 nM, respectively.

Consider `C=CC(=O)Nc1ccc(C(=O)Nc2cccc(Nc3cc(N4CCCCC4CCO)nc4c(CC)cnn34)c2)cc1` (stereo not shown) [SB1-E-24, 4-Acrylamido-N-(3-(3-ethyl-5-(2-(2-hydroxyethyl)piperidin-1-yl)pyrazolo[1,5-a]pyrimidin-7-ylamino)phenyl)benzamide], for which the concentration for half-maximal inhibition (IC50) is 774 nM against CDK7/CycH, 140 nM at CDK9/CycT and 1260 nM on CDK2/CycA.

For `C=CC(=O)Nc1ccc(Nc2cc(N3CCCC[C@H]3CCO)nc3c(CC)cnn23)cc1` [MFH-1-187-1, (S)—N-(4-((3-ethyl-5-(2-(2-hydroxyethyl)piperidin-1-yl)pyrazolo[1,5-a]pyrimidin-7-yl)amino)phenyl)acrylamide], the results for the IC50 on CDK7/CycH, at CDK9/CycT and at CDK2/CycA were 279 nM, 23.5 nM and 171 nM, respectively.

On to `C=CC(=O)N[C@H]1CC[C@@H](Nc2cc(N3CCCC[C@H]3CCO)nc3c(CC)cnn23)CC1` [MFH-1-169-1, N-((1R,4s)-4-((3-ethyl-5-((S)-2-(2-hydroxyethyl)piperidin-1-yl)pyrazolo[1,5-a]pyrimidin-7-yl)amino)cyclohexyl)acrylamide], for which the IC50 at CDK7/CycH came to 7250 nM; against CDK9/CycT, 135 nM; against CDK2/CycA, 3880 nM.

With `C=CC(=O)Nc1cccc(Nc2cc(N3CCCC(N)C3)nc3c(CC)cnn23)c1` (stereo not shown) [MFH-3-140-1, N-(3-(5-(3-aminopiperidin-1-yl)-3-ethylpyrazolo[1,5-a]pyrimidin-7-ylamino)phenyl)acrylamide], the IC50 came out at 356 nM against CDK7/CycH, 465 nM at CDK9/CycT and 4190 nM against CDK2/CycA.

In the case of `C=CC(=O)Nc1cccc(Nc2nc(N3CCCC[C@H]3CCO)nc3c(CC)cnn23)c1` [MFH-2-53-1, (S)—N-(3-(8-ethyl-2-(2-(2-hydroxyethyl)piperidin-1-yl)pyrazolo[1,5-a][1,3,5]triazin-4-ylamino)phenyl)acrylamide], the IC50 on CDK7/CycH came out at 1100 nM; against CDK9/CycT it was 61.6 nM; at CDK2/CycA, 53.6 nM.

Take `CC(C)n1cnc2c(Nc3cccc(NC(=O)/C=C/CN(C)C)c3)nc(N[C@H]3CC[C@H](N(C)C)CC3)nc21` [THZ-5-18-1]: the values for the IC50 at CDK7/CycH, against CDK9/CycT and in the experiment on Jurkat cells were 121 nM, 1530 nM and 1340 nM, respectively.

For `C=CC(=O)Nc1cccc(CNc2cc(N3CCCC[C@@H]3CCO)nc3c(CC)cnn23)c1` [MFH-1-56-1, (R)—N-(3-((3-ethyl-5-(2-(2-hydroxyethyl)piperidin-1-yl)pyrazolo[1,5-a]pyrimidin-7-ylamino)methyl)phenyl)acrylamide], the IC50 on CDK7/CycH was found to be 345 nM; against CDK2/CycA, 1530 nM.

With `C=CC(=O)Nc1cccc(Nc2cc(N3CCCC[C@H]3CCO)nc3c(CC)cnn23)c1` [MFH-1-141-1, (S)—N-(3-(3-ethyl-5-(2-(2-hydroxyethyl)piperidin-1-yl)pyrazolo[1,5-a]pyrimidin-7-ylamino)phenyl)acrylamide], the IC50 against CDK7/CycH was 1210 nM; on CDK9/CycT, 23.9 nM; at CDK2/CycA, 932 nM.

Regarding `CC(C)n1cnc2c(Nc3cccc(NC(=O)c4ccc(NC(=O)/C=C/CN(C)C)cc4)c3)nc(N[C@H]3CC[C@H](N(C)C)CC3)nc21` [THZ-3-49-1, 4-((E)-4-(Dimethylamino)but-2-enamido)-N-(3-((2-(((1r,4r)-4-(dimethylamino)cyclohexyl)amino)-9-isopropyl-9H-purin-6-yl)amino)phenyl)benzamide], the IC50 stood at 9.43 nM against CDK7/CycH, 445 nM at CDK9/CycT and 4030 nM in the experiment with Jurkat cells.

As to `C=CC(=O)Nc1cccc(CNc2nc(N[C@H]3CC[C@H](N(C)C)CC3)nc3c(CC)cnn23)c1` [MFH-2-67-1, N-(3-(((2-(((1r,4r)-4-(dimethylamino)cyclohexyl)amino)-8-ethylpyrazolo[1,5-a][1,3,5]triazin-4-yl)amino)methyl)phenyl)acrylamide], the values for the IC50 on CDK7/CycH, at CDK9/CycT and against CDK2/CycA were 23.7 nM, 103 nM and 1020 nM, respectively.

For `C=CC(=O)Nc1ccc(C(=O)N2CCCC(Nc3cc(NC4CCC(N(C)C)CC4)nc4c(CC)cnn34)C2)cc1` (stereo not shown) [THZ-4-148-1], the IC50 was greater than 10000 nM against CDK7/CycH, 1710 nM against CDK9/CycT and 7050 nM against CDK2/CycA.

On to `C=CC(=O)NC1CCCC(Nc2cc(N3CCCC[C@H]3CCO)nc3c(CC)cnn23)C1` (stereo partly drawn) [MFH-1-167-1, N-(3-(3-ethyl-5-((S)-2-(2-hydroxyethyl)piperidin-1-yl)pyrazolo[1,5-a]pyrimidin-7-ylamino)cyclohexyl)acrylamide], for which the IC50 at CDK7/CycH amounted to 739 nM; on CDK9/CycT it was 24.7 nM; against CDK2/CycA it was 328 nM.

Turning to `C=CC(=O)Nc1ccc(C(=O)Nc2cccc(Nc3nc(N4CCCCC4CCO)nc4c(CC)cnn34)c2)cc1` (stereo not shown) [SB1-E-19, 4-Acrylamido-N-(3-(8-ethyl-2-(2-(2-hydroxyethyl)piperidin-1-yl)pyrazolo[1,5-a][1,3,5]triazin-4-ylamino)phenyl)benzamide], the values for the IC50 at CDK7/CycH, at CDK9/CycT and on CDK2/CycA were 383 nM, 123 nM and 295 nM, respectively.

On to `C=CC(=O)Nc1ccc(C(=O)N2CCCC(Nc3nc(N4CCCCC4CCO)nc4c3ncn4C(C)C)C2)cc1` (stereo not shown) [THZ-4-149-1], for which the half-maximal inhibitory concentration (IC50) against CDK7/CycH is 4430 nM; at CDK9/CycT, 2290 nM; against CDK2/CycA, greater than 1000 nM.

For `C=CC(=O)Nc1cccc(CNc2cc(N3CCCC[C@H]3CCO)nc3c(CC)cnn23)c1` [MFH-1-49-1, (S)—N-(3-(((3-ethyl-5-(2-(2-hydroxyethyl)piperidin-1-yl)pyrazolo[1,5-a]pyrimidin-7-yl)amino)methyl)phenyl)acrylamide], the IC50 against CDK7/CycH was 165 nM; against CDK2/CycA, 27.6 nM.

For the molecule `C=CC(=O)Nc1ccc(C(=O)Nc2cccc(Nc3nc(N[C@H]4CC[C@H](N(C)C)CC4)nc4c3ncn4C(C)C)c2)cc1` [THZ-5-38-1, 4-Acrylamido-N-(3-((2-((trans-4-(dimethylamino)cyclohexyl)amino)-9-isopropyl-9H-purin-6-yl)amino)phenyl)benzamide], the IC50 turned out to be 25.9 nM on CDK7/CycH, 220 nM at CDK9/CycT and 563 nM against CDK2/CycA.
